System: rats
Assay: Behavioural sensitization to amphetamine (motor hyperactivity measured by actimetry)
Settings: amphetamine 0.5 mg/kg IP, ginkgolide A 5 mg/kg per day oral

Compound: C[C@@H]1C(=O)O[C@H]2C[C@@]34[C@H]5C[C@@H](C(C)(C)C)[C@]36[C@@H](OC(=O)[C@@H]6O)O[C@@]4(C(=O)O5)[C@]21O [ginkgolide A]
- behavioural sensitization to amphetamine: reduced
